We go through 38 compounds from patent US9434745B2, “7-oxo-thiazolopyridine carbonic acid derivatives and their use in the treatment, amelioration or prevention of a viral disease” (Savira Pharmaceuticals GmbH, priority 2012, dated 2016).

A value given as a limit tells only on which side of the number the result lay.

Data set [1] has as its system influenza A virus (IAV) A/Aichi/2/68 (H3N2). Put plainly: Cytopathic effect (CPE) assay. In kind it is cell-based. To be noted: MDCK cells, 48 hrs; for inhibition at 50 µM: read-out: CPE % reduction.
The target in data set [2] is T1, influenza A virus (IAV) PA-Nter fragment (amino acids 1-209) (Influenza A virus, UniProt P31343).
T1 construct: PA-Nter fragment (amino acids 1-209); made in house
Put plainly: FRET endonuclease activity assay. To be noted: for IC50: from initial reaction velocities (v0) of RNA substrate cleavage. Type of data set: biochemical.

The test system of data set [3] is MDCK cells. Briefly: Cytotoxicity in uninfected treated cells (CellTiter-Glo) within the CPE assay. In kind it is cell-based, canine. The settings on record: at 50 μM. The method, then: After removal of the culture medium and one washing step with PBS, virus and compound were added together to the cells. In the wells used for cytotoxicity determination (i.e. in the absence of viral infection), no virus suspension was added. Instead, infection medium was added. Each treatment was conducted in two replicates. After incubation at 37° C., 5% CO2 for 48 hrs, each well was observed microscopically for apparent cytotoxicity, precipitate formation, or other notable abnormalities. Then, cell viability was determined using CellTiter-Glo luminescent cell viability assay (Promega). The supernatant was removed carefully and 65 μl of the reconstituted reagent were added to each well and incubated with gentle shaking for 15 min at room temperature. Then, 60 μl of the solution was transferred to an opaque plate and luminescence (RLU) was measured using Synergy HT plate reader (Biotek).
Relative cell viability values of uninfected-treated versus uninfected-untreated cells were used to evaluate cytotoxicity of the compounds. Substances with a relative viability below 80% at the tested concentration were regarded as cytotoxic and retested at lower concentrations.

Regarding `Cc1[nH]c2ncnn2c(=O)c1CC(=O)O`, in data set [1], the inhibition at 50 µM worked out at 28%.

In the case of `O=C(O)c1cn(Cc2ccccc2-c2ccccc2)c2sc(N3CCCCC3)nc2c1=O`, the inhibition at 50 µM in data set [1] was found to be 83%. In data set [2], `CSC1=NC2C(=O)C(C(=O)O)=CN(Cc3ccccc3-c3ccccc3)C2S1` (stereo not drawn) showed an IC50 of 12 µM. In addition, in data set [3], the “Cytotoxicity (relative viability below 80% regarded as cytotoxic)” value was “Toxic”. `CCOC(=O)c1cn(CCc2cccc(C(F)(F)F)c2)c2cc(C3CC3)nn2c1=O` gave a melting point of 140 to 145 °C.

In the case of `Nc1cc2n(C(=O)C3(c4ccccc4)CCCC3)cc(C(=O)O)c(=O)n2n1` [drawing 237], in data set [1], the inhibition at 50 µM came to 18%. Regarding `O=C(O)Cc1c[nH]c2nc(Nc3ccccc3)nn2c1=O`, the melting point was in the range of 279 to 281 °C. Compound `CCOC(=O)c1c[nH]c2cc(C(=O)NCc3ccccc3)nn2c1=O` showed a melting point of 290 to 292 °C. The compound `O=C(O)c1cn(Cc2ccccc2)c2cc(C3CC3)nn2c1=O` yielded a melting point of 210 to 215 °C. For `COc1ccc(S(=O)(=O)Nc2nc3c(=O)c(C(=O)O)cn(Cc4ccc(Cl)cc4-c4ccccc4)c3s2)cc1`, in data set [1], the inhibition at 50 µM is 67%. Take `O=C(O)c1cn(CCc2ccc(O)cc2)c2cc(C3CC3)nn2c1=O`: the melting point lay in the range of 265 to 270 °C. Same read-out and setting: to `CCOC(=O)Cc1c[nH]c2cc(C3CC3)nn2c1=O` belongs 280 to 283 °C; to `CCOC(=O)c1cn(Cc2ccccc2)c2cc(C(C)C)nn2c1=O`, 135 to 140 °C. In turn, `CCOC(=O)c1cn(Cc2ccccc2)c2cc(C3CCCC3)nn2c1=O` returned a melting point of 148 to 150 °C. The same measure, in the same setting: to `CCOC(=O)c1c[nH]c2c(C#N)c(CCCNC)nn2c1=O` belongs 285 to 287 °C; to `O=C(O)Cc1c[nH]c2cc(C(F)(F)F)nn2c1=O`, 320 to 324 °C. As for `CCOC(=O)c1cn(CCc2ccc(OC)cc2)c2cc(C3CC3)nn2c1=O`, the melting point was in the range of 160 to 165 °C.

Regarding `O=C(O)c1c[nH]c2cc(C3CC3)nn2c1=O`, the melting point lay in the range of 275 to 278 °C. Same read-out and setting: to `CCOC(=O)c1c[nH]c2nc(NCc3ccccc3)nn2c1=O` belongs 275 to 278 °C; to `CCOC(=O)Cc1c[nH]c2cc(C(F)(F)F)nn2c1=O`, 290 to 293 °C; to `CCOC(=O)c1cn(CCc2ccc(Cl)cc2)c2cc(C3CC3)nn2c1=O`, 190 to 195 °C. For the compound `O=C(O)c1cn(Cc2ccccc2-c2ccc(Cl)cc2)c2sc(O)nc2c1=O`, in data set [1], the inhibition at 50 µM stood at 63%. Consider `CCOC(=O)c1c[nH]c2cc(C(=O)NC3CCN(Cc4ccccc4)CC3)nn2c1=O`, for which the melting point was in the range of 264 to 266 °C. Compound `CCOC(=O)c1c[nH]c2cc(C(=O)NCCc3ccc(Cl)cc3)nn2c1=O` showed a melting point of over 300 °C.

The compound `CCOC(=O)c1cn(CCc2cccc(F)c2)c2cc(C3CC3)nn2c1=O` came in with a melting point of 160 to 165 °C. Take `O=C(O)c1cn(Cc2ccccc2-c2ccccc2)c2sc(NC3CCCC3)nc2c1=O`: the IC50 in data set [2] amounted to 5.5 µM. For the same compound, the “Cytotoxicity (relative viability below 80% regarded as cytotoxic)” value in data set [3] is recorded as “toxic”. `CCOC(=O)c1cn(Cc2ccccc2)c2cc(C3CC3)nn2c1=O` showed a melting point of 160 to 165 °C. On the same count and under the same terms, the value for `O=C(O)c1cn(CCCc2ccccc2)c2cc(C3CC3)nn2c1=O` was 95 to 100 °C. Still for that read-out and setting: the value for `CCOC(=O)Cc1c[nH]c2nc(Nc3ccc(OC(C)C)cc3)nn2c1=O` was 235 to 240 °C.

Consider `O=C(O)c1cn(Cc2ccccc2-c2ccccc2)c2nc(NC3CCCC3)sc2c1=O`, for which the inhibition at 50 µM in data set [1] stood at 70%. Regarding `N#Cc1ccc(S(=O)(=O)Nc2nc3c(=O)c(C(=O)O)cn(Cc4ccccc4-c4ccccc4)c3s2)cc1`, the 50% inhibitory concentration (IC50) came out at 2.2 µM in data set [2] and 18 µM in data set [1]. On to `CCOC(=O)Cc1c[nH]c2cc(-c3ccccc3)nn2c1=O`, for which the melting point fell in the range of 245 to 250 °C. As to `O=C(O)c1cn(CCc2ccccc2)c2cc(C3CC3)nn2c1=O`, the melting point was 185 to 190 °C. The compound `O=C(O)c1c[nH]c2nc(NCc3cccc4ccccc34)nn2c1=O` returned a melting point of 245 to 250 °C. As to `O=C(O)c1cn(Cc2ccccc2-c2ccccc2)c2nc(NCc3ccccc3)sc2c1=O`, the inhibition at 50 µM in data set [1] came to 68%.

With `O=C(O)c1cn(Cc2ccccc2)c2cc(C3CCCC3)nn2c1=O`, the melting point was in the range of 213 to 215 °C. Regarding `CCOC(=O)c1cn(Cc2ccccc2-c2ccccc2)c2sc(SC)nc2c1=O`, in data set [2], the “FRET (result in words)” value is “inactive”. In data set [1], the inhibition at 50 µM is 35%. As to `CNC(=O)c1cn(Cc2ccccc2-c2ccccc2)c2sc(NCc3ccccc3)nc2c1=O`, the inhibition at 50 µM in data set [1] worked out at 41%. `O=C(O)c1c[nH]c2nc(NCc3ccccc3)nn2c1=O`: the melting point lay in the range of 240 to 245 °C.
